Consider 1 compound from patent US20030211170A1, “Use of physiologically acceptable vanadium compounds, salts and complexes” (GHO'ST HOLDING B.V., priority 1997, published 2003).

Assay [1] has as its system deep burn wounds (skin/dermis structures). The experiment in a line: Deep burn wound model in the Yorkshire pig. Format: in vivo, Yorkshire White. Particulars: administered intravenously in a single dose. From the text: The Yorkshire pig has been chosen as the experimental animal because of all animal species this domestic pig seems to be the one with morphological and functional skin characteristics nearest to human skin and so best fulfils the requirements of a model for human skin. In basic architecture it resembles human skin in the relative thickness of the epidermis and dermis, the presence of epidermal ridges, a distinct dermal papillary layer and a deep layer of subdermal fat. Compared to human the elastic fibre content of porcine dermis is relatively low, but higher than in any other species. […] Studies on the proliferation rate of porcine epidermis show parallels with those of humans. The keratinous proteins are similar. Unlike the skin of rodents, the follicular pattern in pigs and humans is relatively sparse and arranged as single hairs or in groups of two or three follicles. […] The regulation of body temperature by the skin is more evident in humans than in the pig. In the skin of the pig no eccrine glands are found. It does have apocrine glands, but their role in thermoregulation remains debatable. The vascular anatomy of pig skin consists of a three layered network; lower, mid-dermal and sub epidermal. The size, orientation and distribution of the vessels are strikingly similar to human skin, but it does differ from humans in that the sub epidermal network is less dense. The vascularisation of the lower region of the follicle corresponds to that in humans. The healing of deep dermal burns, which depends on this phenomenon, might also be analogous. Studies on the thermal properties of porcine skin as a function of depth have been performed by measuring the tissue water content.
Protocol 1a: Twelve identical deep burn wounds were inflicted in each animal. The animal model used is developed in the Burn Research Institute (Beverwijk, The Netherlands) and is a standard for all of the experimental burn wound research. The model is also accepted by the animal experimental commission of the University of Amsterdam. […]

The subject of assay [2] is hearts of phenobarbital anaesthetized rats (myocardial tissue). The experiment in a line: Infarct size after 60 minutes coronary artery occlusion and 180 minutes of reperfusion in anaesthetized rats. Format: in vivo, rat. To be noted: normothermia (36.5-37.5° C.), 3.3 mg/kg bodyweight i.v. bolus in 10 minutes, 25 minutes prior to CAO, 60 min CAO, 180 min reperfusion, mean ± standard error margin, n=6, P<0.001 vs control (69±2%). On the procedure:
Area at risk (AR) and infarcted area (IA) were determined in hearts of phenobarbital anaesthetized rats after 60 minutes coronary artery occlusion (CAO) and 180 minutes of reperfusion. […] The mean AR expressed as percentage of the left yentricle was not different between the control and the experimental group (42±2% and 42±3%, respectively).

On to `Cc1occc(=O)c1[O-].Cc1occc(=O)c1[O-].[O]=[V+2]` [bis(maltolato)oxovanadium(IV)], for which, in assay [1], the contractions of scars entry was “considerably reduced”; the “healing of burn wounds” value is recorded as “faster healing”; the “structures present in the dermis (deep vascular plexus, hair-adnexes (sebaceous glands), sweat glands)” value was “protected”. Besides, the “IA/AR ratio (infarcted area / area at risk)” value in assay [2] is on record as 45±3%.
